Like-named read-outs stand apart in the source and are kept apart here.
What was measured:
[1] = Rat bioavailability of the indanolic ring hydroxy prodrug, mother compound in plasma by LC-MS; format: in vivo, rats
Procedure: Bioavailability of the ring indanolic ring hydroxy compound of Example B-1 was assessed in rats by the procedure of Biological Example 5 also using a propylene glycol vehicle, 58 mg/kg (0.047 mmol/kg), but wherein the mother compound N1, N6-di [(1S,2R)-2-hydroxy-2,3-dihydro-1-H-1-indenyl]-(2R, 3R, 5R)-2,5-di(benzyloxy)-3,4-dihydroxyhexanediamide was assayed by LC-MS using SiM (single ion monitoring) with M/Z ion detector 653. Plasma results are presented as μM in the table below: […]

[2] = rat, in vivo, po
Procedure: At 30, 60, 120, 240 & 360 minutes, 0.2 ml blood were collected, centrifuged and frozen for later analysis. […] Aliquots comprising 40–100 μl of each plasma sample are mixed with an equal volume of acetonitrile (10 seconds, Vibrofex). The sample is centrifuged (2 min, 14000 RPM) and 30 μl of the supernatant is injected into an HPLC system, as follows.

[3] = Rat pharmacokinetics: FLG in serum after oral prodrug, absolute oral bioavailability; details: in vivo
Source text: (§1) Biomed. Anal. 13, 369–376.

[4] = test system: duck hepatitis B virus (DHBV); assay: DHBV model in ducks, serum DHBV DNA by dot blot-hybridisation; format: in vivo
Source text: The activity of antivirals on duck hepatitis B virus (DHBV) in ducks is an acknowledged animal model for the validation of in vivo hepatitis B activity in humans. […] The results are depicted in FIGS. […] The ducks were two days old when inoculated with DHBV and 18 days old when treatment was commenced. The metabolite and PBS (controls) were given intraperitoneally for 10 days as twice daily injections, at 8 am and 4 pm. Treatment lasted 33 days and the animals were followed 5 weeks after the end of treatment.
The efficacy of treatment was followed by dot blot-hybridisation of DHBV DNA in serum using a radioactive probe and the amount of DHBV measured as the amount of radioactivity hybridised. FIG. 1 plots the amount of DHBV DNA in serum at different timepoints before, during and after treatment.

SIVSM = assay: XTT dye uptake assay utilising MT4 cells; format: cell-based, SIV; details: Simian immunodeficiency virus, read-out: IC50, concentration of metabolite inducing 50% inhibition of viral replication
Source text: (§2) In the XTT dye uptake assay of Koshida et al Antimicrob Agents Chemother.

[5] = Bioavailability of FLG as detected by the present inventors; details: in vivo; FLG itself
Source text: International patent application no. […] The former compound FLG is very active in vitro however the present inventors have detected that its bioavailability is so poor-around 4%-that the in vivo utility of the compound has thus far been limited to intraperitoneally or subcutaneously administered animal models.

HIV-1111B TIBO^r = assay: XTT dye uptake assay utilising MT4 cells; format: cell-based, HIV-1; details: Human immunodeficiency virus 1, MT4, read-out: IC50, concentration of metabolite inducing 50% inhibition of viral replication
Source text: as §2

HIV-1111B = assay: XTT dye uptake assay utilising MT4 cells; format: cell-based, HIV-1; details: Human immunodeficiency virus 1, MT4, read-out: IC50, concentration of metabolite inducing 50% inhibition of viral replication
Source text: as §2

[6] = FLG itself; **literature value; cited from earlier work
[7] = Protein binding in serum samples; format: in vitro ADME
Source text: as §1

HIV-1^29/9 = assay: XTT dye uptake assay utilising MT4 cells; format: cell-based; details: Human immunodeficiency virus 1, read-out: IC50, concentration of metabolite inducing 50% inhibition of viral replication
Source text: as §2

HIV-2SBL6669 = assay: XTT dye uptake assay utilising MT4 cells; format: cell-based; details: Human immunodeficiency virus 2, read-out: IC50, concentration of metabolite inducing 50% inhibition of viral replication
Source text: as §2

HIV-1^2441 AZT^r = assay: XTT dye uptake assay utilising MT4 cells; format: cell-based; details: Human immunodeficiency virus 1, MT4, read-out: IC50, concentration of metabolite inducing 50% inhibition of viral replication
Source text: as §2

[8] = Weight gain of treated DHBV-infected ducks (toxicity); format: in vivo
Source text: The activity of antivirals on duck hepatitis B virus (DHBV) in ducks is an acknowledged animal model for the validation of in vivo hepatitis B activity in humans. […] The ducks were two days old when inoculated with DHBV and 18 days old when treatment was commenced. […] Treatment lasted 33 days and the animals were followed 5 weeks after the end of treatment.

Q: For CC(C)C(N)C(=O)OC1Cc2ccccc2C1NC(=O)[C@H](OCc1ccccc1)C(O)C(O)[C@@H](OCc1ccccc1)C(=O)N[C@H]1c2ccccc2CC1OC(=O)C(N)C(C)C (some centres unmarked), which bioavailability ([1]; rats, same assay, comparator dosed itself) is on record?
A: Its bioavailability is “below the level of detection”.

Q: For CCC(=O)c1ccc(F)c([C@@H]2C[C@@H]2NC(=O)Nc2ccc(C#N)cn2)c1OCOC(=O)[C@@H](N)[C@@H](C)CC (relative stereo) [Example P-1, (1S. 2S)-N-{cis-2-[6-fluoro-2-(L-isoleucyloxymethyloxy)-3-propionylphenyl]cyclopropyl}-N′-[2-(5-cyanopyridyl)]urea], which “Bioavailability0–6 hours” value [2] is on record?
A: Its value is 34%.

Q: With CCCCCCCCCCCCCCCCCC(=O)OCC(CCCC(=O)OC[C@H]1O[C@@H](n2cnc3c(=O)[nH]c(N)nc32)C[C@@H]1F)COC(=O)[C@@H](N)C(C)C (stereo partly drawn) [Example 12, 2′ 3′-dideoxy-3′-fluoro-5′-O-[5-(L-valyloxymethyl)-6-stearoyloxyhexanoyl]guanosine] as the compound, how does the “6 h absolute bioavail. %” value [3] read?
A: The value was 29%.

Q: For CCCCCCCCCCCCCCCCCC(=O)OCC(COC(=O)[C@@H](N)C(C)C)CC(=O)OC[C@H]1O[C@@H](n2cnc3c(=O)[nH]c(N)nc32)C[C@@H]1F (some centres unmarked) [Example 13], which “6 h absolute bioavail. %” value [3] is on record?
A: Its value is 37%.

Q: Which “6 h absolute bioavail. %” value [3] does the source give for CCCCCCCCCCCCCCCCCC(=O)OC(COC(=O)[C@@H](N)C(C)C)C(=O)OC[C@H]1O[C@@H](n2cnc3c(=O)[nH]c(N)nc32)C[C@@H]1F (some centres unmarked) [Example 25] here?
A: Its value is 81.5%.

Q: For CC(C)[C@H](N)C(=O)OCC(COC(=O)[C@@H](N)C(C)C)CC(=O)OC[C@H]1O[C@@H](n2cnc3c(=O)[nH]c(N)nc32)C[C@@H]1F [Example 26, 2′, 3′-Dideoxy-3′-fluoro-5′-O-[3,3-bis(L-valyloxymethyl)-propionic acid] guanosine], which “12 h absolute bioavail. %” value [3] is on record?
A: The value was 67.5%.

Q: With CC(C)[C@H](N)C(=O)OCC(COC(=O)[C@@H](N)C(C)C)OC(=O)CCC(=O)OC[C@H]1O[C@@H](n2cnc3c(=O)[nH]c(N)nc32)C[C@@H]1F [Example 29, 2′, 3′-Dideoxy-3′-fluoro-5′-O-3-[1,3-bis-(L-valyloxy]-2-propyloxycarbonylpropanoyl]guanosine] as the compound, how does the “6 h absolute bioavail. %” value [3] read?
A: The value was 51%.

Q: With Nc1nc2c(ncn2[C@H]2C[C@H](F)[C@@H](CO)O2)c(=O)[nH]1 [FLG, 2′,3′-dideoxy, 3′-fluoroguanosine] as the compound, how does the “inhibition of DHBV in vivo” value ([4]; 0.3 mg/kg/day) read?
A: The value was “considerable inhibition of DHBV in vivo”.

Q: And the “amount of DHBV DNA in serum during treatment” value ([4]; 5 mg/kg/day intraperitoneally, twice daily injections)?
A: The value was “dramatic decrease in the amount of DHBV in serum during the first 10 days of treatment, whereupon for the remainder of treatment the level of DHBV DNA was below the detection limit”.

Q: What about the “DHBV in serum after the finish of treatment” value ([4]; after the finish of treatment, followed 5 weeks) of the same compound?
A: Its value is “virus reappeared in the serum”.

Q: What about the “serum DHBV DNA during treatment” value ([4]; repeat experiments at 30 and 3 mg/kg/day and with congenitally infected ducks) of the same compound?
A: The value was “dramatic fall in serum DHBV DNA to under the detection threshold”.

Q: And the IC50 (SIVSM)?
A: Its IC50 is 1 µg/mL.

Q: And the bioavailability [5]?
A: Its bioavailability is roughly 4%.

Q: What about the IC50 (HIV-1111B TIBO^r) of the same compound?
A: The IC50 was 1 µg/mL.

Q: What about the IC50 (HIV-1111B) of the same compound?
A: Its IC50 is 1 µg/mL.

Q: What about the “12 h absolute bioavail. %” value [6] of the same compound?
A: The value was 9%**.

Q: And the protein binding [7]?
A: The protein binding was “neglible”.

Q: And the IC50 (HIV-1^29/9)?
A: Its IC50 is 0.7 µg/mL.

Q: What about the IC50 (HIV-2SBL6669) of the same compound?
A: The IC50 was 2 µg/mL.

Q: What about the IC50 (HIV-1^2441 AZT^r) of the same compound?
A: Its IC50 is 1 µg/mL.

Q: And the “weight of the ducks during treatment” value ([8]; 5 mg/kg/day, compared with PBS treated controls)?
A: The value was “increased in the same way as in the control”.

Q: And the “toxicity judged from growth rate” value ([8]; ducks, treatment period)?
A: Its value is “clearly non-toxic”.

Q: For O=C(N[C@H]1c2ccccc2C[C@H]1O)[C@H](OCc1ccccc1)C(O)[C@@H](O)[C@@H](OCc1ccccc1)C(=O)N[C@H]1c2ccccc2C[C@H]1O (stereo partly drawn) [mother compound, N1, N6-di [(1S,2R)-2-hydroxy-2,3-dihydro-1-H-1-indenyl]-(2R, 3R, 5R)-2,5-di(benzyloxy)-3,4-dihydroxyhexanediamide], which bioavailability ([1]; rat, in vivo) is on record?
A: Its bioavailability is “below level of detection”.
